Results from the NIST ThermoML archive (doi:10.1021/acs.jced.8b00879).
Numbers after ± are expanded uncertainties.

Test: mn = molality of the nth substance listed, in mol/kg
Details: 85 kPa, Liquid; for viscosity: Capillary tube (Ostwald / Ubbelohde) method; for speed of sound: Frequency=3 MHz, Single path-length method; for mass density: Vibrating tube method

## C[N+](C)(C)CCO.O=C([O-])[C@@H]1CCCN1 [2-hydroxy-N,N,N-trimethylethanaminium L-prolinate] + O
288.15 K, m1 = 0.0136
  viscosity: 1.325 ± 0.12 mPa·s
  speed of sound: 1468.7 ± 1.2 m/s
  mass density: 999.51 ± 0.33 kg/m3
288.15 K, m1 = 0.0217
  viscosity: 1.337 ± 0.12 mPa·s
  speed of sound: 1469.9 ± 1.2 m/s
  mass density: 999.76 ± 0.33 kg/m3
288.15 K, m1 = 0.0329
  viscosity: 1.351 ± 0.12 mPa·s
  speed of sound: 1471.5 ± 1.2 m/s
  mass density: 1000.09 ± 0.32 kg/m3
288.15 K, m1 = 0.044
  viscosity: 1.364 ± 0.12 mPa·s
  speed of sound: 1473.1 ± 1.2 m/s
  mass density: 1000.42 ± 0.32 kg/m3
288.15 K, m1 = 0.0525
  viscosity: 1.375 ± 0.12 mPa·s
  speed of sound: 1474.2 ± 1.2 m/s
  mass density: 1000.67 ± 0.32 kg/m3
288.15 K, m1 = 0.0626
  viscosity: 1.388 ± 0.12 mPa·s
  speed of sound: 1475.6 ± 1.2 m/s
  mass density: 1000.96 ± 0.32 kg/m3
298.15 K, m1 = 0.0136
  viscosity: 1.059 ± 0.12 mPa·s
  speed of sound: 1499 ± 1.1 m/s
  mass density: 997.47 ± 0.32 kg/m3
298.15 K, m1 = 0.0217
  viscosity: 1.067 ± 0.12 mPa·s
  speed of sound: 1500.2 ± 1.2 m/s
  mass density: 997.71 ± 0.33 kg/m3
298.15 K, m1 = 0.0329
  viscosity: 1.077 ± 0.12 mPa·s
  speed of sound: 1501.8 ± 1.2 m/s
  mass density: 998.05 ± 0.33 kg/m3
298.15 K, m1 = 0.044
  viscosity: 1.089 ± 0.12 mPa·s
  speed of sound: 1503.4 ± 1.1 m/s
  mass density: 998.38 ± 0.32 kg/m3
298.15 K, m1 = 0.0525
  viscosity: 1.096 ± 0.12 mPa·s
  speed of sound: 1504.5 ± 1.2 m/s
  mass density: 998.63 ± 0.33 kg/m3
298.15 K, m1 = 0.0626
  viscosity: 1.104 ± 0.12 mPa·s
  speed of sound: 1505.9 ± 1.1 m/s
  mass density: 998.92 ± 0.3 kg/m3
308.15 K, m1 = 0.0136
  viscosity: 0.879 ± 0.12 mPa·s
  speed of sound: 1522.1 ± 1.1 m/s
  mass density: 994.45 ± 0.32 kg/m3
308.15 K, m1 = 0.0217
  viscosity: 0.884 ± 0.12 mPa·s
  speed of sound: 1523.3 ± 1.2 m/s
  mass density: 994.7 ± 0.33 kg/m3
308.15 K, m1 = 0.0329
  viscosity: 0.894 ± 0.12 mPa·s
  speed of sound: 1524.8 ± 1.2 m/s
  mass density: 995.04 ± 0.33 kg/m3
308.15 K, m1 = 0.044
  viscosity: 0.902 ± 0.12 mPa·s
  speed of sound: 1526.4 ± 1.1 m/s
  mass density: 995.37 ± 0.32 kg/m3
308.15 K, m1 = 0.0525
  viscosity: 0.908 ± 0.12 mPa·s
  speed of sound: 1527.5 ± 1.2 m/s
  mass density: 995.63 ± 0.33 kg/m3
308.15 K, m1 = 0.0626
  viscosity: 0.916 ± 0.12 mPa·s
  speed of sound: 1528.9 ± 1.1 m/s
  mass density: 995.92 ± 0.3 kg/m3
318.15 K, m1 = 0.0136
  viscosity: 0.74 ± 0.12 mPa·s
  speed of sound: 1538 ± 1.2 m/s
  mass density: 990.64 ± 0.33 kg/m3
318.15 K, m1 = 0.0217
  viscosity: 0.746 ± 0.12 mPa·s
  speed of sound: 1539.1 ± 1.2 m/s
  mass density: 990.9 ± 0.33 kg/m3
318.15 K, m1 = 0.0329
  viscosity: 0.753 ± 0.12 mPa·s
  speed of sound: 1540.7 ± 1.2 m/s
  mass density: 991.24 ± 0.33 kg/m3
318.15 K, m1 = 0.044
  viscosity: 0.76 ± 0.12 mPa·s
  speed of sound: 1542.2 ± 1.2 m/s
  mass density: 991.58 ± 0.33 kg/m3
318.15 K, m1 = 0.0525
  viscosity: 0.764 ± 0.12 mPa·s
  speed of sound: 1543.3 ± 1.1 m/s
  mass density: 991.84 ± 0.33 kg/m3
318.15 K, m1 = 0.0626
  viscosity: 0.772 ± 0.12 mPa·s
  speed of sound: 1544.6 ± 1.1 m/s
  mass density: 992.13 ± 0.33 kg/m3
